Results taken from patent publication US20060100264A1, “3,3'-Diindolylmethane immune activating compositions” (priority 2004, published 2006).

What was measured:
MCF-7 cells = test: Cell proliferation over a 4-day treatment period; assay type: cell-based, human; conditions: 4-day treatment, heat-treated serum
Method: Functional consequences of the synergistic effects of DIM and IFNγ on gene expression were examined at the level of proliferation rates. Cell proliferation was measured over a 4-day treatment period with treatments with DIM, IFNγ, or both substances, and compared to a DMSO control. With heat-treated serum, IFNγ alone reduced cell proliferation by as much as 70% compared to controls. DIM treatments reduced proliferation by as much as 60%. […] These effects were accompanied by morphological changes characteristic of apoptosis.

MHC-I complex = test: Flow cytometry of cell surface MHC-I expression (FITC-conjugated HLA-ABC antibody); assay type: cell-based, human; conditions: no IFNγ
Method: Induced expression of the MHC-I complex is a well-established and important down-stream target of IFNγ-mediated signal transduction. To examine further the possible synergistic effects of DIM on a significant metabolic product of IFNγ signaling, we tested the effects of co-treatment with DIM on IFNγ induced expression of MHC-I complex in MCF-7 cells.
Flow cytometry analysis of cell surface MHC-I expression was conducted using FITC-conjugated HLA-ABC antibody. In an initial control experiment, cultured MCF-7 cells were pre-treated with 30 μM DIM for 48 hours and then with or without 10 ng/mL IFNγ for another 16 hours. […] In a subsequent experiment in which cells were treated with a range of IFNγ concentrations and analyzed with the anti-MHC-I antibody, a strong signal indicative of IFNγ-induced MHC-I expression was detectable at 0.1 ng/mL and appeared to plateau at 10 ng/mL. In cells treated with vehicle control only, MHC-I expression was not detected in greater than 99% of cells.
Exposure to DIM of cells treated with 10 ng/mL of IFNγ, about 95% of which expressed MHC-I, produced a strong time dependent increase in MFV from 76.04 to 131.41. […] As expected, addition of an IFNγ blocking antibody into the medium before the treatments abrogated the inducing effects of co-treatments of IFNγ and DIM on MHC-I expression, confirming the requirement of the cytokine for the observed effects.

[1] = test system: DMBA-induced mammary tumorigenesis; conditions: repeated oral administrations during promotion stage, rodents; cited from earlier work
[2] = test system: Y. enterocolitica WA-314 serotype O:8; test: Y. enterocolitica infection of BALB/c mice, spleen bacterial numbers; assay type: in vivo
Method: Female, 6- to 8-week-old BALB/c mice are purchased from Charles River and kept under specific-pathogen-free conditions (positive-pressure cabinet).
Mice are given 30 μg/kg/day of a DIM or one of 24 substituted DIM compounds (Table 1, supra) orally, starting at 1 day prior to infection.
Freshly thawed, plasmid-harboring Y. enterocolitica WA-314 serotype O:8 organisms suspended in 0.1 ml of sterile phosphate-buffered saline (PBS), pH 7.4, are used for intravenous and oral infection as described previously (Autenrieth, et al. 1994. Infect. Immun. 62:2590-2599). The actual number of bacteria administered is determined by plating serial dilutions of the inoculum on Mueller-Hinton agar and counting CFU after an incubation period of 36 h at 26C. For kinetic studies, five mice per group are killed by carbon dioxide asphyxiation on days 1, 3, and 7 postinfection (p.i.) with 5×10^3 bacteria. Spleens are aseptically removed, and single-cell suspensions prepared by using 5 ml of PBS containing 0.1% bovine serum albumin. Duplicates of 0.1 ml of serial dilutions of these preparations are plated on Mueller-Hinton agar. The limit of detectable CFU is 25 (log1025=1.4).
In single end-point studies, bacterial numbers in spleens of treated BALB/c mice 7 days p.i. with 2×10^3 Y. enterocolitica show significant reductions compared with untreated controls.

STAT1 = STAT1 phosphorylation (Tyr-701) by Western blot; assay type: cell-based, human; conditions: DIM 6 or 24 h, with or without 15 min IFNγ exposure
Source text: To acsertain the role of GAS element activation in transcriptional activation by DIM, we examined the effect of this indole on downstream events in the GAS signaling pathway. For this purpose, the effects of DIM on phosphorylation of the signal transduction and activator of transcription factor 1 (STAT1), and the binding of the activated STAT1 dimer to the cognate GAS responsive element were examined. Phosphorylation of STAT1 by Janus-activated kinase (JAK) is the first step in IFNγ signaling following binding to IFNGR1. For these studies, cells were pretreated with DIM for 6 or 24 h followed by a 15 min. exposure to IFNγ. STAT1 phosphorylation levels in cell lysates of DIM-treated cells were compared to controls that received IFNγ but had not been treated with DIM. Phosphorylation was measured by Western blot analysis using an antibody specific to STAT1 phosphorylated on Tyr-701 residue.

IFNγ = IFNγ mRNA expression in DIM-treated MCF-7 cells (cDNA microarray, Northern blot, quantitative RT-PCR); assay type: cell-based, human
Method: Immune response activating effects of the DIM analogs are examined with cell-based assays for cytokine and cytokine receptor expression. […] We also used a sensitive sandwich ELISA assay to examine levels of IFNγ in medium from confluent cultures of MCF-7 cells that were treated for up to 3 days. DIM derivatives confirmed to have immune response activating activity in our reporter and ELISA assays are subsequently screened in a whole animal cytokine production and Y. enterocolitica infection studies, as described below in Examples VIII and IX.
An initial cDNA gene expression microarray screen of human breast cancer MCF-7 cells treated with DIM, followed by confirmation of results using Northern blots and quantitative RT-PCR, established the transcriptional activation of IFNγ, IFNγ receptor (IFNGR1), oligoadenylate-synthase (OAS) family member protein 69 (p69-OAS), and interferon-inducible protein 56 (p56), a protein closely related to OAS. […] Maximum induction for IFNγ, IFNGR1, p69-OAS and p56 were 4.6, 3.8, 3.2 and 4.0 fold, respectively.

TNF-α = test: Serum TNF-α by ELISA in mice after DIM; assay type: in vivo; conditions: 30 μg/kg DIM orally
Method: (§1) We firstly investigated the effect of unsubstituted DIM on the production of IL-6, G-CSF, IL-12, TNF-α and IFNγ. A groups of 3 mice was given 30 μg/kg of unsubstituted DIM orally and then sacrificed at 1, 3, 5, 8, and 24 h after drug challenge. Serum was collected, pooled, and assayed for IL-6, G-CSF, IL-12 and TNF-α by ELISA. […] DIM produced an increase in circulating levels of G-CSF and TNF-α with the 3 h time point being maximal. […] DIM also stimulated IL-12 and kinetics were slightly different since the increased levels were sustained for at least 24 h.

IL-6 = test: Serum IL-6 by ELISA in mice after DIM; assay type: in vivo; conditions: 30 μg/kg DIM orally
Method: as §1

G-CSF = test: Serum G-CSF by ELISA in mice after DIM; assay type: in vivo; conditions: 30 μg/kg DIM orally
Method: as §1

Question: With `c1ccc2c(Cc3c[nH]c4ccccc34)c[nH]c2c1` [DIM, 3,3′-Diindolylmethane] as the compound, how does the “Reduction of cell proliferation compared to controls” value (MCF-7 cells) read?
Answer: Its value is no more than 60%.

Question: What about the “Expression of the MHC-I complex, DIM treatment alone” value (MHC-I complex) of the same compound?
Answer: The value was “no significant effect”.

Question: And the “Inhibition of tumor growth” value [1]?
Answer: Its value is no more than 95%.

Question: And the “Severity of yersiniae infection” value [2]?
Answer: The value was “reduce the severity of yersiniae infection”.

Question: What about the “STAT1 phosphorylation (Tyr-701)” value (STAT1) of the same compound?
Answer: Its value is “did not induce STAT1 phosphorylation”.

Question: And the “Maximum induction of IFNγ mRNA” value (IFNγ; MCF-7 cells treated with DIM)?
Answer: The value was 4.6 fold.

Question: What about the “Treatment time at which IFNγ expression was fully induced” value (IFNγ; MCF-7 cells treated with DIM) of the same compound?
Answer: The value was 6 h.

Question: And the “IFNγ mRNA level following 48 h of DIM treatment” value (IFNγ; MCF-7 cells, 48 h)?
Answer: Its value is “returned to near control levels”.

Question: And the “Time point of maximal circulating TNF-α” value (TNF-α)?
Answer: Its value is 3 h.

Question: And the “Time of peak IL-6 induction” value (IL-6)?
Answer: Its value is 5 h.

Question: And the “Time point of maximal circulating G-CSF” value (G-CSF)?
Answer: The value was 3 h.
